Laboratory results from publication PMC9304066, “H2S biogenesis by cystathionine beta-synthase: mechanism of inhibition by aminooxyacetic acid and unexpected role of serine” (Cellular and Molecular Life Sciences: CMLS, 2022).

Tests used:
HEK293 cells = test: Cell proliferation (BrdU); assay type: cell-based, human; settings: Ser concentrations above 3 mM, 'up to'
Method: Cell culture. The human embryonic kidney cell line HEK293 (ATCC CRL-1573) was cultured in Dulbecco’s Modified Eagle Medium (DMEM) containing 4.5 g/L glucose. The culture medium was supplemented with 10% (v/v) heat-inactivated fetal bovine serum, 2 mM Glutamax, non-essential amino acids, 100 U/ml penicillin and 100 μg/ml streptomycin. Cells were grown in a humidified incubator at 37 °C and 5% CO2 atmosphere. Cell viability and proliferation were assessed using MTT and BrdU assay, respectively, essentially as described previously.

human skin fibroblasts = system: human skin fibroblasts; set-up: method as in PMID 31481613; settings: cited from earlier work
colon cancer cells = system: colon cancer cells; set-up: method as in PMID 23836652, PMID 27521834, PMID 27257787; settings: transformed cells like colon cancer cells; cited from earlier work
human recombinant CSE = system: human recombinant CSE; set-up: method as in PMID 23488457; settings: in vitro; cited from earlier work
tScCBS = target: T1, tScCBS (Saccharomyces cerevisiae, UniProt P32582); test: CBL-LDH coupled-coupled CBS assay, tScCBS; assay type: biochemical
T1 construct: 6xHis (C); made in house
T1 sequence (P32582 1-345): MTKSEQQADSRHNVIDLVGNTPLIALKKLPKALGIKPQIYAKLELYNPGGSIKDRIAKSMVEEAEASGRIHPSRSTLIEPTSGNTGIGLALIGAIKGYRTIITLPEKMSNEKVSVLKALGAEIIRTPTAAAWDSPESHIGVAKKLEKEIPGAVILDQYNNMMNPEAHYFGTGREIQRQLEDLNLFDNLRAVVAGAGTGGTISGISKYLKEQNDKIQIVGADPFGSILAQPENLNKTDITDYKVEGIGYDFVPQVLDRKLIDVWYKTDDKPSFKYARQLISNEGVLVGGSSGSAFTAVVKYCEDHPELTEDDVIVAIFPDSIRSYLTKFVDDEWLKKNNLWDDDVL
Method: CBS coupled-coupled assay. CBS canonical activity utilizing Ser and Hcy was determined using cystathionine beta-lyase (CBL) and lactate-dehydrogenase (LDH) coupled-coupled assay as described previously with a few modifications. Native L-LDH from rabbit muscle was purchased from Sigma (catalog no. L2500) and recombinant CBL was purchased from Creative Enzymes (catalog no. NATE-1146). In a final volume of 150 µL, the reaction mixture contained 50 mM Tris–HCl pH 8.9, 20 µM PLP, 500 µM NADH, 1.3 µM LDH, 0.1 µM CBL, 0–20 mM Ser (or 0–50 mM Cys) and 500 ng of tScCBS or HsCBS. Assays with HsCBS were carried out in the absence or presence of 500 µM CBS allosteric activator S-adenosylmethionine (SAM). The reaction was triggered by the addition of 2 mM Hcy and the oxidation of NADH to NAD^+ was followed by monitoring the decrease in absorbance at 340 nm over time (ε340 = 6220 M^−1.cm^−1). […] All measurements were performed in triplicates using Tecan Infinite 200 PRO microplate reader. Kinetic data were analyzed using GraphPad Prism software.

Row | SMILES | Increase of cellular proliferation (HEK293 cells) | Concentration shutting down CBS-derived H2S biogenesis (human skin fibroblasts) [µM] | Concentrations required to achieve similar level of inhibition of CBS-derived H2S biogenesis (colon cancer cells) [mM] | Potency inhibiting human recombinant CSE relative to CBS (human recombinant CSE) | Reduction of activity catalyzing condensation of Cys and Hcy yielding H2S (tScCBS; AOAA-inhibited tScCBS (200 µM AOAA)) [%] | Effect on condensation of Ser and Hcy (canonical reaction) (tScCBS; tScCBS inhibited by 200 µM AOAA, 5 mM Ser + 2 mM Hcy)
1 | N[C@@H](CO)C(=O)O [Ser, serine] | ~ 18% | – | – | – | – | –
2 | NOCC(=O)O [AOAA, aminooxyacetic acid] | – | 3 | 0.1 to 2 | ~ 8 times | 85 | not impaired
